In patent US20080176263A1, “Materials and Methods for Efficient and Accurate Detection of Analytes” (University of Florida Research Foundation, Inc., priority 2006, published 2008):
“And” between values parts separate entries of the source, which are not always exact repeats. Equal entries are not always repeated. Numbered stars: 1 amine (or outer) side, 2 acyl side, 3 side chain; on linkers, the order of the positions; unused ones are H or OH. Square brackets hold non-standard residues; d marks the D form. * marks the point of attachment. Dab(5-FAM) = O=C(NCC[C@H](N[*:1])C(=O)[*:2])c1ccc2c(c1)C(=O)OC21c2ccc(O)cc2Oc2cc(O)ccc21; EDANS = O=S(=O)(O)c1cccc2c(NCCN*)cccc12; DABCYL = DABCYL quencher; GABA = NCCCC(=O)O

Experiments:
substrate TNO211 [1] = experiment: Study #1: time-to-detection of protease activity, cleavage of substrate TNO211 by fluorescence; type: biochemical; conditions: protease concentrations ≦100 ng/ml
Method: 1. Prepare a suitable standard curve diluted in enzyme buffer. Typically, a maximum of 50 ng/ml final protease concentration in the assay is used. Keep on ice until use.
2. Prepare the substrate solution by diluting the Stock Reconstituted Substrate (in DMSO) to 5.56 uM in the desired Assay Buffer (EDTA-free or EDTA-containing) to produce 90 ul of total EDTA-free or EDTA-containing Assay Buffer per well.
3. Pipette 90 ul substrate solution into each well to be assayed.
4. Take an initial fluorescence reading. To minimize interference due to the fluorescence of endogenous proteins in the samples, we routinely use excitation/emission wavelengths of 355/535 nm, respectively.
5. Pipette 10 ul standards, samples, or Enzyme Buffer (BLANK) into each well of the 96-well fluorescence assay plate.
6. Measure the change in fluorescence continuously until the standard range of interest is sufficiently resolved. Protect from light at RT or 37° C. between measurements.
7. Determine the best-fit curve relating the Change in Fluorescence (AF) vs.
[Protease]. […]
One hundred, 10, 1, and 0.1 ng of pronase, MMP-2, MMP-9, and clostridial collagenase were assayed in a total reaction volume of 100 ul for cleavage of substrate TNO211 as detected by fluorescence. The reactions were monitored for approximately one hour after the addition of the proteases.

MMP-9 [2] = conditions: at 37° C., pH 7.64; cited from earlier work
Target sequence in this assay (P14780 94-707, species assumed): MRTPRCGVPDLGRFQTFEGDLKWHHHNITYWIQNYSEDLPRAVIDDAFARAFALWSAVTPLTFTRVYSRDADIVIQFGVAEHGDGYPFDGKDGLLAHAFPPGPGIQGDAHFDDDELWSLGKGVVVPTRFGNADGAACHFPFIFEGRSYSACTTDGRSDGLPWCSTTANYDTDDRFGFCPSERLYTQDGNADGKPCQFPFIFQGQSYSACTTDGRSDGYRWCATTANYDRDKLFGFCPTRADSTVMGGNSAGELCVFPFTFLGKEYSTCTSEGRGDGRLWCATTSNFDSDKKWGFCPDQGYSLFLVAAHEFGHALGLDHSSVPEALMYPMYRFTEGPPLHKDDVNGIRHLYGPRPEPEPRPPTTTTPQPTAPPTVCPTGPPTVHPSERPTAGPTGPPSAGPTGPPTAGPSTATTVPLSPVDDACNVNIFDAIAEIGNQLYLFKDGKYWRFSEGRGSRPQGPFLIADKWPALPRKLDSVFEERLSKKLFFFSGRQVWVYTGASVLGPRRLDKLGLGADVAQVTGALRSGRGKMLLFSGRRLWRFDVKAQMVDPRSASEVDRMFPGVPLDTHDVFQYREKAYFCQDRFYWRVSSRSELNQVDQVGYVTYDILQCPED

MMP-3 = MMP-3 (Homo sapiens, UniProt P08254); conditions: at 37° C., pH 7.64; cited from earlier work
MMP-1 = target: T1, MMP-1 (Homo sapiens, UniProt P03956); conditions: at 37° C., pH 7.64; cited from earlier work
T1 sequence (P03956 100-469): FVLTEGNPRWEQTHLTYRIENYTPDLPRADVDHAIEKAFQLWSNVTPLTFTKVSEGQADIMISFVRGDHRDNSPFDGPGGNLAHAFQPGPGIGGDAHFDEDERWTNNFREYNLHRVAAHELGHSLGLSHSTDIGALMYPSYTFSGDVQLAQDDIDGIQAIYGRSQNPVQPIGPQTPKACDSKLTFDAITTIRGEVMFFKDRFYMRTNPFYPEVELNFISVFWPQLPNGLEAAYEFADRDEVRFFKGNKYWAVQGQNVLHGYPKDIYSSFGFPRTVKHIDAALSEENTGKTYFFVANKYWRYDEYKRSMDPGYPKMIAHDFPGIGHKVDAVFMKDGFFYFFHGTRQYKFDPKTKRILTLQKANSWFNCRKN

MMP-2 = target: T2, MMP-2 (Homo sapiens, UniProt P08253); conditions: at 37° C., pH 7.64; cited from earlier work
T2 sequence (P08253 110-660): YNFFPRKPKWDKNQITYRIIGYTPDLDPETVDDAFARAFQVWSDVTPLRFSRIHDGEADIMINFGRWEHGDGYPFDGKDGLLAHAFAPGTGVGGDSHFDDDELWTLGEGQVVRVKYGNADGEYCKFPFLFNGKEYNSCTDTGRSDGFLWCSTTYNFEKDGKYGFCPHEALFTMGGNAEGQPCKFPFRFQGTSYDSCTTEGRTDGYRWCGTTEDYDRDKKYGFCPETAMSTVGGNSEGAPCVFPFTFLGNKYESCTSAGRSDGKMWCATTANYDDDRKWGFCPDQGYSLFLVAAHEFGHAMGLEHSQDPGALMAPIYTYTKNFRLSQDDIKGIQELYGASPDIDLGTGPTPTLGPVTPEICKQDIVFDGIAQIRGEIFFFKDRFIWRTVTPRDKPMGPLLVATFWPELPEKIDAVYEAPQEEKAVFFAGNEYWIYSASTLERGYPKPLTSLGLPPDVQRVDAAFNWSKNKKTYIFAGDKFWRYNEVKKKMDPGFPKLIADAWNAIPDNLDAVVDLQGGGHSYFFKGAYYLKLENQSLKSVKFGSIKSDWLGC

pronase = conditions: 23° C., 30 min, 100 tM substrate
Method: The biotinylated fluoreceinated peptide #15 was reconstituted to a concentration of 10 mM in DMSO to serve as a stock solution. […] The 10 mM stock was further diluted to a 1 mM working stock. The final in-reaction concentration of substrate was 100 tM, which was chosen based on visual/fluorescent appearance of the diluted sample.
Three reactions were run, a negative control which contained no protease, a tube which contained 10 tg/mL, and a tube that contained 100 tg/mL.
All three tubes were shaken at room temperature (23° C.) for 30 min, then 30 μL of 500 mM EDTA was added to quench the metalloproteases. Then the reactions were immediately added to 10 kDa cut-off centrifuge filters to physically remove all proteases. This step required two separate filters per sample as the protein content was high enough to “clog” the filter after about half of the volume as filtered. The unfiltered volume was removed from the “clogged” filter and placed into a fresh filter.
Six handee spin columns were prepared in advance by loading 200 tL of the streptavidin agarose suspension (approximately 1:1 bead:buffer) and then centrifuging to remove the buffer. Upon completion of the protease removal step, the filtered volume was placed in a handee spin column loaded with ˜100 tL of a high-capacity streptavidin agarose and the volumes were well mixed by pipetting action. […]

MMP-9 [3] = experiment: 5-FAM FRET peptide assay with pure recombinant MMP-9; type: biochemical; conditions: pure MMP-9 activity near the threshold of Ladwig et al.
Method: Peptide: Two vials of Anaspec, Inc.'s FRET peptide XV (1646.1 g/mol; 100 pg each; Sequence: QXL™520-y-Abu-Pro-Gln-Gly-Leu-Dab(5-FAM)-Ala-Lys-NH (SEQ ID NO:3)) were reconstituted with 60.7 pL of dimethyl sulfoxide (DMSO) to create a stock solution with a concentration of 1.0 mM. A 2× (50 pM) working solution was generated by diluting the 1.0 mM stock in MMP Assay Buffer 20-fold. Each reaction will be 20 pL at final volume requiring at least 0.5 pL of 1.0 mM stock, 9.5 pL of MMP assay buffer and 10 pL of sample per reaction.
Matrix Metalloprotease 9 (aka Gelatinase B): Recombinant active pure MMP-9 from Calbiochem (Cat# PF024; 83 kDa form) in a concentration of 100 ng/mL was used to create 40 pL working solutions at 2× concentration (4× reactions per concentration).
The protease was ˜30 pL of 10 pg/mL MMP-9 (86 kDa form). The substrate was ˜60 μL of 50 μCM 5-FAM/QXL520 FRET Peptide (Fluorescein based TNO211). So the final protease concentration is ˜3.33 μg/mL with ˜33.3 μM.
After the plate-based validation, the leftover substrate and protease were used to test the system in a microcentrifuge tube. A signal visible with a handheld cyan led flashlight was present within 10 minutes. The signal was visible under normal lighting conditions, but the signal is enhanced with the lights out or with the tube shielded.
Target sequence in this assay (P14780 107-707 limits assumed): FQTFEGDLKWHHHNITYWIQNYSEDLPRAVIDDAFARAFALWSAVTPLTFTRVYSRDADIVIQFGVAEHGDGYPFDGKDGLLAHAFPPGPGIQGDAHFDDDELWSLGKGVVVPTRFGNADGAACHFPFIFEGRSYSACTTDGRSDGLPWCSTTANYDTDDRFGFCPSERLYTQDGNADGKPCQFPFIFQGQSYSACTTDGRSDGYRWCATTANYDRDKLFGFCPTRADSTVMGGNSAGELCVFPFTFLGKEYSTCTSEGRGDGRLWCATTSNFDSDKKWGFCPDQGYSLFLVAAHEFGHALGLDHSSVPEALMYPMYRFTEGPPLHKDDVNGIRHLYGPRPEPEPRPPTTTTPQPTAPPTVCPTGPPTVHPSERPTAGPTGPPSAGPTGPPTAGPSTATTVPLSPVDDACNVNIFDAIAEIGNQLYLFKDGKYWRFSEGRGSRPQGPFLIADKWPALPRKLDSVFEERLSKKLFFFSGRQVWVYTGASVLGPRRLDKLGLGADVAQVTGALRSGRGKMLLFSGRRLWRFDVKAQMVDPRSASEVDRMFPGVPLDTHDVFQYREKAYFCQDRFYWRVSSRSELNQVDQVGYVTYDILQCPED

substrate TNO211 [4] = experiment: Study #3: protease detection sensitivity, visual detection under UV; type: biochemical; conditions: within 10 minutes; from 17% and 28% of pronase activity
Method: To investigate the visual detection limits of pronase, standard curves (1000-0 ng) of the protease were reacted in 50, 100, and 200 uM substrate diluted in the assay buffer. Digital photographs were taken under white light and UV. These observations were compared to those obtained quantitatively using the fluorescence plate reader. The observed detection limits for pronase were used to calculate theoretical detection limits for MMP-2 and MMP-9 (17% and 28% as active as pronase, respectively).

MMP-3, sequence (P08254 100-477, species assumed): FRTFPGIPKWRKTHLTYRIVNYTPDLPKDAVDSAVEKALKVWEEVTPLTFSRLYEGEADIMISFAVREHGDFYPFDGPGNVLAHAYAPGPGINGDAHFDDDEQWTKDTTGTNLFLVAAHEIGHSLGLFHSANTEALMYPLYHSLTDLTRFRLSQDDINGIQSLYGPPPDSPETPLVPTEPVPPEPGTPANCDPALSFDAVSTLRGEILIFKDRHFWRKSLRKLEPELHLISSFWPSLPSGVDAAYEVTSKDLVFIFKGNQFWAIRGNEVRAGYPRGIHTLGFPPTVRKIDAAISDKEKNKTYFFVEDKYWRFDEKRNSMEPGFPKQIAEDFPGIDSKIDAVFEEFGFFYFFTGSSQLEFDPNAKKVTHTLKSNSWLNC

collagenase
activity as % of pronase's observed activity (substrate TNO211 [1]): 2±1%

DABCYL-GABA-Pro-Gln-Gly-Leu-Glu(EDANS)-Ala-Lys-NH2 ({DABCYL-GABA}-PQGLE(EDANS)AK-NH2) [TNO211]
kcatKm (MMP-9 [2]): 206,000 M^−1s^−1 | kcatKm (MMP-3): 40,000 M^−1s^−1 | kcatKm (MMP-1): 21,000 M^−1s^−1 | kcatKm (MMP-2): 619,000 M^−1s^−1

Biotin-aAbu-Pro-Gln-Gly-Leu-Lys(5FAM)-Ala-Lys-NH2 [Peptide #15]
cleavage kinetics (pronase): favorable kinetics

QXL™520-y-Abu-Pro-Gln-Gly-Leu-Dab(5-FAM)-Ala-Lys-NH ({QXL520-GABA}-PQGL[Dab(5-FAM)]AK-NH2) [Anaspec XV]
time to generate a signal (MMP-9 [3]): ≤ 10 min

MMP-9: Matrix Metalloprotease 9, protease assayed for cleavage of substrate TNO211
theoretical detection limit calculated from pronase limit (substrate TNO211 [4]): ~450 ng | activity as % of pronase's observed activity (substrate TNO211 [1]): 28±3% and 28%
